{"source": "paper PMC12379584", "about": "“Characterization of the ligand binding pocket of the virulence regulator Rns, a member of the AraC/XylS family of transcription factors” (mSphere, 2025)", "key": {"[1]": {"molecular_target": "T1, MBP-Rns (Escherichia coli, UniProt P16114)", "T1 construct": "full-length codon-optimized Rns with N-terminal MBP solubility tag kept (pMBPRnsOPT2, pMalC2), expressed in E. coli BL21, MBPTrap and heparin columns", "assay": "EMSA, inhibition of DNA binding", "format": "biochemical"}, "[2]": {"molecular_target": "MBP-Rns (Escherichia coli, UniProt P16114, I14F/I17F)", "assay": "biochemical"}, "[3]": {"molecular_target": "MBP-Rns (Escherichia coli, UniProt P16114, H20A)", "assay": "biochemical"}, "[4]": {"molecular_target": "MBP-Rns (Escherichia coli, UniProt P16114, R75A)", "assay": "biochemical"}}}
{"smiles": "CCCCCCCCCC(=O)O", "note": "[decanoic acid]", "values": [{"measurement": "IC50", "setting": "[1]", "value": 1.15, "unit": "mM"}, {"measurement": "IC50", "setting": "[2]", "value": "> 10", "unit": "mM"}, {"measurement": "IC50", "setting": "[3]", "value": "> 10", "unit": "mM"}, {"measurement": "IC50", "setting": "[4]", "value": "> 10", "unit": "mM"}]}
